In PubChem BioAssay (NCI):
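A five-concentration, 48-hour dose response in 96-well plates underlies each endpoint, interpolated linearly between surrounding concentrations. Definition used: TGI = concentration required for complete inhibition of growth.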

Experiments:
Assay in all cases: NCI anticancer screen, dose series, 48 h
SK-MEL-2 melanoma = test system: SK-MEL-2 melanoma
NCI-H522 lung = test system: NCI-H522 lung
KM12 colon = test system: KM12 colon
HCT-116 colon = test system: HCT-116 colon
OVCAR-4 ovarian = test system: OVCAR-4 ovarian
SN12C renal = test system: SN12C renal
HCC-2998 colon = test system: HCC-2998 colon
A549 NSCLC = test system: A549 NSCLC
786-0 renal = test system: 786-0 renal
SK-OV-3 ovarian = test system: SK-OV-3 ovarian
RXF 393 renal = test system: RXF 393 renal
DMS 273 small cell lung = test system: DMS 273 small cell lung
ACHN renal = test system: ACHN renal
NCI-H23 lung = test system: NCI-H23 lung
LXFL 529 NSCLC = test system: LXFL 529 NSCLC
OVCAR-3 ovarian = test system: OVCAR-3 ovarian
UO-31 renal = test system: UO-31 renal
EKVX NSCLC = test system: EKVX NSCLC
SK-MEL-28 melanoma = test system: SK-MEL-28 melanoma
SF-539 CNS = test system: SF-539 CNS
NCI-H460 lung = test system: NCI-H460 lung
HT29 colon = test system: HT29 colon
HOP-62 NSCLC = test system: HOP-62 NSCLC
IGROV1 ovarian = test system: IGROV1 ovarian
HL-60(TB) leukemia = test system: HL-60(TB) leukemia
M19-MEL melanoma = test system: M19-MEL melanoma
LOX IMVI melanoma = test system: LOX IMVI melanoma
A498 renal = test system: A498 renal
KM20L2 colon = test system: KM20L2 colon
SNB-78 CNS = test system: SNB-78 CNS
COLO 205 colon = test system: COLO 205 colon
MALME-3M melanoma = test system: MALME-3M melanoma
UACC-62 melanoma = test system: UACC-62 melanoma
U251 CNS = test system: U251 CNS
SF-268 CNS = test system: SF-268 CNS
K-562 leukemia = test system: K-562 leukemia
SNB-75 CNS = test system: SNB-75 CNS
SK-MEL-5 melanoma = test system: SK-MEL-5 melanoma
DLD-1 colon = test system: DLD-1 colon
SF-295 CNS = test system: SF-295 CNS
HOP-18 NSCLC = test system: HOP-18 NSCLC
HOP-92 NSCLC = test system: HOP-92 NSCLC
OVCAR-5 ovarian = test system: OVCAR-5 ovarian
RPMI-8226 leukemia = test system: RPMI-8226 leukemia
HCT-15 colon = test system: HCT-15 colon
TK-10 renal = test system: TK-10 renal
SNB-19 CNS = test system: SNB-19 CNS
SR leukemia = test system: SR leukemia
DMS 114 small cell lung = test system: DMS 114 small cell lung
M14 melanoma = test system: M14 melanoma
UACC-257 melanoma = test system: UACC-257 melanoma
SW-620 colon = test system: SW-620 colon
MOLT-4 leukemia = test system: MOLT-4 leukemia
NCI-H226 lung = test system: NCI-H226 lung
CAKI-1 renal = test system: CAKI-1 renal
OVCAR-8 ovarian = test system: OVCAR-8 ovarian
XF 498 CNS = test system: XF 498 CNS
CCRF-CEM leukemia = test system: CCRF-CEM leukemia

Cc1nn(-c2nc3ccccc3s2)c2c1C(=O)c1ccccc1-2 was tested, and the TGI (SK-MEL-2 melanoma) was > 100 µM, the TGI (NCI-H522 lung) was > 100 µM and the TGI (KM12 colon) was > 100 µM. The TGI (HCT-116 colon) was > 100 µM, the TGI (OVCAR-4 ovarian) was 64.1 µM and the TGI (SN12C renal) was > 100 µM. For the same molecule, the TGI (HCC-2998 colon) was > 100 µM, the TGI (A549 NSCLC) was > 100 µM and the TGI (786-0 renal) was > 100 µM. The TGI (SK-OV-3 ovarian) was > 100 µM, the TGI (RXF 393 renal) was > 100 µM and the TGI (DMS 273 small cell lung) was > 100 µM. For the same molecule, the TGI (ACHN renal) was > 100 µM, the TGI (NCI-H23 lung) was > 100 µM and the TGI (LXFL 529 NSCLC) was > 100 µM. For the same molecule, the TGI (OVCAR-3 ovarian) was > 100 µM, the TGI (UO-31 renal) was > 100 µM and the TGI (EKVX NSCLC) was > 100 µM. For the same molecule, the TGI (SK-MEL-28 melanoma) was > 100 µM, the TGI (SF-539 CNS) was > 100 µM and the TGI (NCI-H460 lung) was > 100 µM. The TGI (HT29 colon) was > 100 µM, the TGI (HOP-62 NSCLC) was > 100 µM and the TGI (IGROV1 ovarian) was > 100 µM. For the same molecule, the TGI (HL-60(TB) leukemia) was > 100 µM, the TGI (M19-MEL melanoma) was > 100 µM and the TGI (LOX IMVI melanoma) was > 100 µM. For the same molecule, the TGI (A498 renal) was > 100 µM, the TGI (KM20L2 colon) was > 100 µM and the TGI (SNB-78 CNS) was > 100 µM. The TGI (COLO 205 colon) was > 100 µM, the TGI (MALME-3M melanoma) was > 100 µM and the TGI (UACC-62 melanoma) was > 100 µM. For the same molecule, the TGI (U251 CNS) was > 100 µM, the TGI (SF-268 CNS) was > 100 µM and the TGI (K-562 leukemia) was > 100 µM. For the same molecule, the TGI (SNB-75 CNS) was > 100 µM, the TGI (SK-MEL-5 melanoma) was > 100 µM and the TGI (DLD-1 colon) was > 100 µM. For the same molecule, the TGI (SF-295 CNS) was > 100 µM, the TGI (HOP-18 NSCLC) was > 100 µM and the TGI (HOP-92 NSCLC) was > 100 µM. The TGI (OVCAR-5 ovarian) was > 100 µM, the TGI (RPMI-8226 leukemia) was > 100 µM and the TGI (HCT-15 colon) was > 100 µM. For the same molecule, the TGI (TK-10 renal) was > 100 µM, the TGI (SNB-19 CNS) was > 100 µM and the TGI (SR leukemia) was > 100 µM. The TGI (DMS 114 small cell lung) was > 100 µM, the TGI (M14 melanoma) was > 100 µM and the TGI (UACC-257 melanoma) was > 100 µM. The TGI (SW-620 colon) was > 100 µM.

With O=c1oc(=O)c2oc3ccccc3oc1=2 the TGI (SK-MEL-2 melanoma) was > 100 µM, the TGI (NCI-H522 lung) was > 100 µM and the TGI (KM12 colon) was > 100 µM. For the same molecule, the TGI (HCT-116 colon) was > 100 µM, the TGI (OVCAR-4 ovarian) was > 100 µM and the TGI (SN12C renal) was > 100 µM. For the same molecule, the TGI (HCC-2998 colon) was > 100 µM, the TGI (A549 NSCLC) was > 100 µM and the TGI (MOLT-4 leukemia) was > 100 µM. For the same molecule, the TGI (786-0 renal) was > 100 µM, the TGI (SK-OV-3 ovarian) was > 100 µM and the TGI (RXF 393 renal) was > 100 µM. The TGI (DMS 273 small cell lung) was > 100 µM, the TGI (ACHN renal) was > 100 µM and the TGI (NCI-H23 lung) was > 100 µM. For the same molecule, the TGI (LXFL 529 NSCLC) was > 100 µM, the TGI (OVCAR-3 ovarian) was > 100 µM and the TGI (UO-31 renal) was > 100 µM. For the same molecule, the TGI (EKVX NSCLC) was > 100 µM, the TGI (SK-MEL-28 melanoma) was > 100 µM and the TGI (SF-539 CNS) was > 100 µM. For the same molecule, the TGI (NCI-H460 lung) was > 100 µM, the TGI (HT29 colon) was > 100 µM and the TGI (HOP-62 NSCLC) was > 100 µM. For the same molecule, the TGI (IGROV1 ovarian) was > 100 µM, the TGI (HL-60(TB) leukemia) was > 100 µM and the TGI (M19-MEL melanoma) was > 100 µM. The TGI (LOX IMVI melanoma) was > 100 µM, the TGI (A498 renal) was > 100 µM and the TGI (KM20L2 colon) was > 100 µM. The TGI (COLO 205 colon) was > 100 µM, the TGI (MALME-3M melanoma) was > 100 µM and the TGI (NCI-H226 lung) was > 100 µM. For the same molecule, the TGI (CAKI-1 renal) was > 100 µM, the TGI (UACC-62 melanoma) was > 100 µM and the TGI (U251 CNS) was > 100 µM. The TGI (SF-268 CNS) was > 100 µM, the TGI (K-562 leukemia) was > 100 µM and the TGI (SNB-75 CNS) was > 100 µM. For the same molecule, the TGI (DLD-1 colon) was > 100 µM, the TGI (SF-295 CNS) was > 100 µM and the TGI (HOP-18 NSCLC) was > 100 µM. The TGI (HOP-92 NSCLC) was > 100 µM, the TGI (OVCAR-5 ovarian) was > 100 µM and the TGI (OVCAR-8 ovarian) was > 100 µM. The TGI (XF 498 CNS) was > 100 µM, the TGI (HCT-15 colon) was > 100 µM and the TGI (TK-10 renal) was > 100 µM. The TGI (SNB-19 CNS) was > 100 µM, the TGI (SR leukemia) was > 100 µM and the TGI (DMS 114 small cell lung) was > 100 µM. The TGI (CCRF-CEM leukemia) was > 100 µM, the TGI (M14 melanoma) was > 100 µM and the TGI (UACC-257 melanoma) was > 100 µM. The TGI (SW-620 colon) was > 100 µM.
